Tests used:
[1] = biological target: T1, cloned human S1P1 (Homo sapiens, UniProt P21453); test: In-vitro affinity, EC50 for cloned human S1P1; assay type: biochemical
T1 construct: expressed in transfected cells

[2] = biological target: T2, cloned human S1P5 (Homo sapiens, UniProt Q9H228); test: In-vitro affinity, EC50 for cloned human S1P5; assay type: biochemical
T2 construct: expressed in transfected cells

[3] = biological target: S1P1 (Homo sapiens, UniProt P21453); test: EC50 for S1P1; assay type: biochemical; details: as quoted in Example 3.1
S1P1, sequence (P21453 whole entry, species assumed): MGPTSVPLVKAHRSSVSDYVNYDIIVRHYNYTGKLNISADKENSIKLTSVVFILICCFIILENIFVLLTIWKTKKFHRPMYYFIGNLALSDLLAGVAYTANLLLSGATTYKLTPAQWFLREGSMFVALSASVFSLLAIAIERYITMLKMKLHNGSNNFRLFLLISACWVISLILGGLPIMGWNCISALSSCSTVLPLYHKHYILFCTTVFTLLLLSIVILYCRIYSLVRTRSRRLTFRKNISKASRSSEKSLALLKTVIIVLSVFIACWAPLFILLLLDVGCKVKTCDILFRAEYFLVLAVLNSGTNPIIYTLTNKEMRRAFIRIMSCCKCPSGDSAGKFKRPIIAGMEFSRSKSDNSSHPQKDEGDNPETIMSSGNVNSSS

[4] = biological target: S1P5 (Homo sapiens, UniProt Q9H228); test: EC50 for S1P5; assay type: biochemical; details: as quoted in Example 3.1
S1P5, sequence (Q9H228 whole entry, species assumed): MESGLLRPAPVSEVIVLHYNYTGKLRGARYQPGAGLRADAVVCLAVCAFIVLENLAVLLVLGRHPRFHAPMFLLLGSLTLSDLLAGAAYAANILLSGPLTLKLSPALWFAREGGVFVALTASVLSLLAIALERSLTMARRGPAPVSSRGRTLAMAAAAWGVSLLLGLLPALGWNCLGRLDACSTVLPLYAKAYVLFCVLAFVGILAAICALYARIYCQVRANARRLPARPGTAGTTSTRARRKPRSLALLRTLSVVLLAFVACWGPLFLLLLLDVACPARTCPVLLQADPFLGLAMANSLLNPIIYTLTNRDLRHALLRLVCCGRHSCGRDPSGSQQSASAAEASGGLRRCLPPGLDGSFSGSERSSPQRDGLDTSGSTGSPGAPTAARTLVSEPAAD

[5] = tested on: PLP139-151 induced experimental autoimmune encephalomyelitis (EAE) in SJL/J mice; test: Relapse and progression in PLP139-151 induced EAE; assay type: in vivo; details: 3 mg/kg p.o. daily, started three days after first clinical symptoms; FIG. 2
Protocol: Female SJL/J mice were immunized with 50 μg PLP139-151 in CFA, followed by one injection of 200 ng Pertussis toxin, i.p.. Three days after the first clinical symptoms, the mice were randomized to either vehicle or BAF312 and treated daily with 3 mg/kg BAF312 p.o..

[6] = Clinical study in SPMS: cardiac monitoring at treatment initiation; assay type: in vivo, patients with Secondary Progressive Multiple Sclerosis
Description: This is a randomized, multicenter, double-blind, placebo-controlled parallel-group study in approximately 1530 patients with SPMS. Patients are randomized (2:1) to receive either BAF312 or placebo.
The Double-blind treatment epoch starts at randomization. Patients are randomly assigned to either siponimod or placebo. Randomized patients begin with a six-day dose titration Patients are monitored during the dose titration period. During the dose titration, all patients are expected to complete a study visit on the first day of dosing and on day 7. Patients have a study visit on Day 28 and then continue on a visit schedule every 3 months. The treatment duration for individual patients is variable (likely ranging from approximately 23 to 42 months) based on when the study-stop criteria are met.
All patients start the treatment with a 5-day dose titration pack (0.25 mg, 0.25 mg, 0.5 mg, 0.75 mg, 1.25 mg) continuing to a 2 mg siponimod/placebo dose.
Sitting heart rate and blood pressure should be measured in triplicate before the first dose of BAF312, then hourly for 6 hours thereafter (by the Independent First Dose Administrator). When obtaining the pre-dose heart rate before the first dose, the patient should be allowed to sit and rest for 5 minutes before taking the sitting heart rate. Triplicate repeat sitting heart rate and blood pressure will then be made at 1-2 minute intervals. The sitting heart rate and blood pressure measurements should be taken as a baseline reading for both heart rate and blood pressure (before the first dose of BAF312). For comparison to the post-dose heart rate values, the lowest pre-dose value of heart rate should be used. Patients should receive the first dose of BAF312 before 12:00 PM (noon) in the outpatient setting. • 1. In house (clinical/office/hospital) cardiac monitoring, of at least 6 hours, on Day 1 (treatment initiation): • Heart rate and blood pressure will be monitored in triplicate every hour for 6 hours. • 12-lead ECG will be done before dosing, then at 3 hours post-dose and 6 hours post dose • Patients will only be discharged if they meet the following discharge criteria: • Heart rate must be at least 50 bpm or maximally 10 bpm lower than the baseline value • Heart rate must not be the lowest value measured during the observation period • Patients must have no symptoms related to decreased heart rate • ECG at 6 hours should not show any new significant treatment-emergent ECG abnormalities, other than sinus bradycardia, not observed at the patient's pre-dose ECG. • 2. If the discharge criteria are not met at the 6-hour time point, monitoring beyond 6 hours will be performed until the discharge criteria are met. • 3. Patients experiencing a clinically relevant treatment-related symptomatic event (e.g. chest pain, dizziness, palpitations, syncope, nausea and vomiting, etc) associated with reduction of the heart rate together with ECG changes at any time during the 6 hour monitoring period should be discontinued from treatment. • 4. Patients experiencing a symptomatic event, (e.g. chest pain, dizziness, palpitations, syncope, nausea and vomiting) not associated with reduction of the heart rate and without ECG changes, which occur at any time during the 6-hour monitoring period may be discharged, provided they meet the discharge criteria, but must return on Day 2 for the second dose and will be re-monitored as on Day 1. • 5. Mobile heart rate monitoring with telemetry, or a device with similar (or better) registration capability, will be used for continuous registration of heart rate and cardiac events, minimally 6 h post-dose, for Expanded Cardiac Monitoring patients during their outpatient phase of the BAF312 titration period. If MCT is not possible, Patient will be required to wear a Holter on Screening, Day 1 and Day 4 for 24 hours and for 6 hours on Day 7. The patients who will wear a Holter will need make the study visits to have the Holter machine attached. • 6. On Day 4: • a. […]

[7] = administration of 10 mg of siponimod; cited from earlier work
[8] = blinded data (siponimod or placebo)
[9] = blinded data (siponimod or placebo), AE data for 775 patients

T1 sequence (P21453 whole entry): as the sequence (P21453 whole entry, species assumed) above
T2 sequence (Q9H228 whole entry): as the sequence (Q9H228 whole entry, species assumed) above

| Compound | EC50 [1] [nM] | EC50 [2] [nM] | EC50 [3] [nM] | EC50 [4] [nM] | occurrence of relapses (relapse onset) [5] | occurrence of subsequent progression (EAE score and body weight) [5] | 12-lead ECG: cases of 2nd degree AV block ([6]; blinded data (siponimod or placebo 2:1), 5-day titration then 2 mg, post-dose ECG, 691 patients) | cases of 2.1 or Mobitz II AV blocks or high degree AV blocks [6, 8] | cases of symptomatic 2nd degree AV blocks [6, 8] | symptomatic bradyarrhythmia events [6, 8] | Holter: patients with AV block 2nd degree Mobitz I night-time episode <3 sec ([6]; blinded data (siponimod or placebo), Day 1, expanded monitoring group, 651 patients) [patient] | MCT: patients with AV block 2nd degree Mobitz I ([6]; blinded data (siponimod or placebo), on Days 3 and 4, MCT or Holter post-dose, 651 patients) [patients] | AE AV block 2nd degree [6, 9] | AE bradycardia [6, 9] | AE sinus bradycardia [6, 9] | Cardiac disorders AEs reported [6, 9] | SAE of asymptomatic 2nd degree AV block Mobitz I ([6]; blinded data, patient with pre-existing AV block 1st degree receiving carbamazepine, SAE data for 862 patients) [SAE] | decrease in heart rate [7] |
| --- | --- | --- | --- | --- | --- | --- | --- | --- | --- | --- | --- | --- | --- | --- | --- | --- | --- | --- |
| CCc1cc(/C(C)=N/OCc2ccc(C3CCCCC3)c(I)c2)ccc1CN1CC(C(=O)O)C1 [compound A, (E)-1-(4-(1-(((4-cyclohexyl-3-iodobenzyl)oxy)imino)ethyl)-2-ethylbenzyl)azetidine-3-carboxylic acid] | 2.2 | 1.35 | – | – | – | – | – | – | – | – | – | – | – | – | – | – | – | – |
| CCc1cc(/C(C)=N/OCc2ccc(C3CCCCC3)c(C(F)(F)F)c2)ccc1CN1CC(C(=O)O)C1 [siponimod, 1-{4-[1-((E)-4-cyclohexyl-3-trifluoromethyl-benzyloxyimino)-ethyl]-2-ethyl-benzyl}-azetidine-3-carboxylic acid] | 0.9 | 0.79 | 0.4 | 1 | strongly inhibited | strongly inhibited | no cases | No cases | No cases | No symptomatic bradyarrhythmia events | 1 | 2 | 2 (0.3%) patients (%) | 17 (2.2%) patients (%) | 8 (1.0%) patients (%) | 54 (7%) patients (%) | 1 | approximately 10 beats/min |

— US20250041266A1, “S1P MODULATOR IMMEDIATE RELEASE DOSAGE REGIMEN” (Novartis AG, priority 2014, published 2025)
